Source: the supplement of paper PMC10307832

Assays:
Experiment in all cases: relative viability (nuclei count vs DMSO), 5 days (fraction); higher = more cells survive
[1] = compound: CN1CCN(CC1)C2=CC(=C(C=C2)NC3=NC=C4C(=N3)N(C5=CC=CC=C5C(=O)N4C)C)OC [XMD8-85] + O=C(CCCCCCC(=O)Nc1ccccc1)NO [Vorinostat] (partner 1 µM)
Procedure, shortened: (§1)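 Lung cancer cell lines, seeded in 1536-well plates, were treated the following day by pin tool with a single drug or with five library-drug doses (not always all listed) in √10 steps on top of a fixed anchor-drug dose. Cells were fixed and nuclei stained in one step after 5 days, and nuclei were counted. Relative viability is the nuclei count for treated wells divided by that for vehicle wells, reported as medians of duplicate plates.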

[2] = compound: O=C(O)C(Cc1ccccc1[N+](=O)[O-])=NNc1nc(-c2ccc(Cl)c(Cl)c2)cs1 (mixture of isomers) [4EGI-1] + CCNC(=O)c1noc(-c2cc(C(C)C)c(O)cc2O)c1-c1ccc(CN2CCOCC2)cc1 [Luminespib] (partner 0.01 µM)
Procedure, shortened: as §1

[3] = compound: O=C(O)C(Cc1ccccc1[N+](=O)[O-])=NNc1nc(-c2ccc(Cl)c(Cl)c2)cs1 (mixture of isomers) [4EGI-1] + Cc1cc(Nc2cc(N3CCN(C)CC3)nc(Sc3ccc(NC(=O)C4CC4)cc3)n2)n[nH]1 [Tozasertib] (partner 0.1 µM)
Procedure, shortened: as §1

[4] = compound: O=C(O)C(Cc1ccccc1[N+](=O)[O-])=NNc1nc(-c2ccc(Cl)c(Cl)c2)cs1 (mixture of isomers) [4EGI-1] + O=C(c1cc(Cc2n[nH]c(=O)c3ccccc23)ccc1F)N1CCN(C(=O)C2CC2)CC1 [Olaparib] (partner 8 µM)
Procedure, shortened: as §1

Cell Line	relative viability ([1]; first compound 0.08 µM)	relative viability ([1]; first compound 0.253 µM)	relative viability ([1]; first compound 0.8 µM)	relative viability ([1]; first compound 2.53 µM)	relative viability ([1]; first compound 8 µM)	relative viability ([2]; first compound 0.5 µM)	relative viability ([2]; first compound 1.581 µM)	relative viability ([2]; first compound 5 µM)	relative viability ([2]; first compound 15.81 µM)	relative viability ([2]; first compound 50 µM)	relative viability ([3]; first compound 0.5 µM)	relative viability ([3]; first compound 1.581 µM)	relative viability ([3]; first compound 5 µM)	relative viability ([3]; first compound 15.81 µM)	relative viability ([3]; first compound 50 µM)	relative viability ([4]; first compound 0.5 µM)	relative viability ([4]; first compound 1.581 µM)	relative viability ([4]; first compound 5 µM)	relative viability ([4]; first compound 15.81 µM)	relative viability ([4]; first compound 50 µM)
201T	1.01	1.03	0.961	0.978	0.741	1.08	0.973	1.09	0.92	0.782	1.01	0.91	0.905	0.771	0.475	0.859	0.753	0.869	0.777	0.675
A549	–	–	–	–	–	–	–	–	–	–	–	–	–	–	–	0.495	–	0.306	0.355	0.301
A-427	0.89	0.866	0.911	0.865	0.659	1.04	0.658	1.01	0.793	0.315	0.192	0.195	0.189	0.205	0.0979	0.777	–	0.766	0.643	0.276
ABC-1	1.2	1.27	1.01	0.969	0.533	0.83	0.326	0.792	0.402	0.201	0.201	0.15	0.21	0.206	0.172	0.885	–	1.19	1.16	0.269
BEN	0.554	0.536	0.627	0.501	0.455	0.371	0.332	0.318	0.331	0.152	0.631	0.626	0.53	0.475	0.461	1.15	1.09	1.2	0.891	0.595
CAL-12T	0.724	0.861	–	0.602	0.534	0.411	0.149	0.186	0.4	0.251	0.354	0.264	0.315	0.315	0.21	0.829	0.484	0.754	0.751	0.624
COR-L23	0.413	0.486	0.558	0.516	0.236	0.843	0.519	0.77	0.579	0.0992	0.215	0.145	0.189	0.157	0.0963	0.35	0.217	0.344	0.271	0.175
COR-L 105	0.737	0.91	0.768	0.661	0.543	1.04	0.648	0.801	0.667	0.598	0.369	0.343	0.343	0.286	0.366	0.64	0.635	0.644	0.559	0.537
Calu-6	–	–	–	–	–	–	–	–	–	–	–	–	–	–	–	0.559	0.5	0.627	0.464	0.332
ChaGo-K-1	0.751	0.782	0.76	0.81	0.619	0.631	0.38	0.62	0.517	0.491	0.209	0.208	0.212	0.209	0.208	0.386	0.406	0.407	0.34	0.217
EBC-1	–	–	–	–	–	–	–	–	–	–	–	–	–	–	–	0.808	0.755	0.765	0.506	0.237
EKVX	0.631	0.8	0.851	0.91	0.626	0.847	0.628	0.925	0.701	0.895	0.434	0.359	0.433	0.368	0.371	0.838	–	0.862	0.692	0.592
EMC-BAC-2	0.424	0.468	0.413	0.385	0.185	1.25	1.01	1.16	1.15	1.06	0.324	0.262	0.329	0.312	0.26	0.517	–	0.5	0.37	0.2
EPLC-272H	0.414	0.401	0.335	0.296	0.243	0.498	–	0.318	0.251	0.206	0.288	–	0.297	0.172	0.193	0.781	0.42	0.952	0.436	0.135
H3255	0.875	0.761	0.867	0.902	0.536	1.07	0.674	0.991	0.621	0.733	0.789	0.43	0.726	0.571	0.551	0.591	0.501	0.541	0.5	0.405
HARA	0.549	0.592	0.565	0.427	0.47	0.954	0.958	0.968	0.645	0.0683	0.129	0.121	0.101	0.105	0.0717	0.848	0.68	1	0.515	0.18
HCC-15	0.896	0.819	0.806	0.792	0.586	0.25	0.437	0.268	0.157	0.152	0.331	0.377	0.5	0.308	0.155	0.716	0.691	0.634	0.676	0.517
HCC-44	1.11	1.07	1.07	1.16	1.04	1.22	–	0.979	0.764	0.23	0.971	–	0.946	0.384	0.282	0.959	0.829	0.953	0.934	0.752
HCC-78	0.395	0.43	0.391	0.427	0.434	–	–	–	–	–	0.538	–	0.336	1.56	0.289	1.05	–	0.881	0.816	1.13
HCC-366	0.292	0.346	0.304	0.378	0.181	–	–	–	–	–	0.131	0.0938	0.0608	0.0943	0.0321	0.342	0.203	0.395	0.257	0.0601

Cell Line	relative viability ([1]; first compound 0.08 µM)	relative viability ([1]; first compound 0.253 µM)	relative viability ([1]; first compound 0.8 µM)	relative viability ([1]; first compound 2.53 µM)	relative viability ([1]; first compound 8 µM)	relative viability ([2]; first compound 0.5 µM)	relative viability ([2]; first compound 1.581 µM)	relative viability ([2]; first compound 5 µM)	relative viability ([2]; first compound 15.81 µM)	relative viability ([2]; first compound 50 µM)	relative viability ([3]; first compound 0.5 µM)	relative viability ([3]; first compound 1.581 µM)	relative viability ([3]; first compound 5 µM)	relative viability ([3]; first compound 15.81 µM)	relative viability ([3]; first compound 50 µM)	relative viability ([4]; first compound 0.5 µM)	relative viability ([4]; first compound 1.581 µM)	relative viability ([4]; first compound 5 µM)	relative viability ([4]; first compound 15.81 µM)	relative viability ([4]; first compound 50 µM)
HCC-827	0.909	0.824	0.802	0.959	0.773	0.672	0.804	0.661	–	0.581	0.428	0.422	0.415	–	0.358	0.572	0.457	0.703	–	0.406
HOP-62	0.605	0.673	0.622	0.598	0.231	0.974	–	0.868	0.89	0.31	0.385	0.257	0.403	0.34	0.211	0.493	–	0.445	0.208	0.267
IA-LM	0.824	0.731	0.812	0.662	0.588	–	–	–	–	–	–	–	–	–	–	0.767	0.771	0.644	0.154	0.0834
LC-2-ad	0.739	–	0.702	0.691	0.434	1.13	–	0.906	0.385	0.269	0.415	–	0.483	0.347	0.232	0.631	0.617	0.645	0.523	0.309
LCLC-97TM1	0.786	0.823	0.915	0.784	0.259	0.875	0.675	0.715	0.955	0.0986	0.231	0.184	0.215	0.219	0.102	0.355	–	0.278	0.328	0.0574
LCLC-103H	0.799	0.77	0.784	0.801	0.585	0.984	0.898	0.989	0.82	0.618	0.557	0.479	0.537	0.434	0.394	0.72	0.658	0.728	0.699	0.415
LK-2	0.25	0.421	0.271	0.264	0.206	0.192	–	0.269	0.206	0.162	0.193	–	0.199	0.151	0.151	0.86	–	0.884	0.654	0.404
LOU-NH91	0.896	0.904	0.91	1.04	0.641	0.351	–	0.398	0.328	0.34	0.671	–	0.666	0.432	0.69	0.95	–	0.911	0.738	0.564
LU99A	0.363	0.518	0.506	–	0.428	0.246	0.271	0.308	0.228	0.205	0.258	0.227	0.298	0.28	0.208	0.243	0.212	0.242	0.193	0.141
LXF-289	0.749	0.893	0.781	0.875	0.795	0.745	0.62	0.745	0.644	0.407	0.203	0.22	0.204	0.151	0.168	1.09	0.975	1.02	1.05	0.513
NCI-H23	0.508	0.634	0.638	0.591	0.31	0.221	–	0.23	0.246	0.179	0.393	–	0.471	0.382	0.214	0.335	–	0.278	0.245	0.161
NCI-H322M	0.832	0.815	0.885	0.779	0.606	1	–	0.855	0.727	0.321	0.457	–	0.509	0.469	0.29	0.761	–	0.795	0.761	0.457
NCI-H358	–	0.635	0.71	0.619	0.261	0.339	0.353	0.293	0.224	0.153	0.102	0.117	0.102	0.102	0.0781	0.599	0.58	0.531	0.336	0.118
NCI-H441	0.72	0.666	0.859	1.02	0.698	0.375	0.315	0.294	0.306	0.292	0.688	0.538	0.574	0.541	0.284	0.654	0.425	0.597	0.315	0.192
NCI-H460	0.53	0.786	0.672	0.766	0.146	0.038	–	0.0367	0.0323	0.0228	0.538	–	0.45	0.144	0.314	0.425	–	0.436	0.244	0.134
NCI-H1299	–	–	–	–	–	–	–	–	–	–	–	–	–	–	–	1.01	0.95	0.942	0.863	0.317
NCI-H1563	–	–	–	–	–	0.447	0.567	0.542	0.5	0.412	–	–	–	–	–	–	–	–	–	–
NCI-H1623	–	–	–	–	–	0.637	0.553	0.707	0.383	0.387	0.481	0.421	0.535	0.36	0.33	–	–	–	–	–
NCI-H1648	0.522	0.474	0.265	0.244	0.292	–	–	–	–	–	0.604	0.623	0.532	0.466	0.314	0.742	0.79	0.965	0.566	0.48
NCI-H1703	–	–	–	–	–	–	–	–	–	–	–	–	–	–	–	0.601	0.46	0.409	0.52	0.331
